Legend:
cotton = test: Test Example 4, pre-emergence treatment, phytotoxicity to cotton; type: in vivo; settings: 20 days; further: ranges in brackets are in %
Procedure: (§1) The application of the tetrahydrophthalimides (I) as herbicides will be illustratively shown in the following Examples wherein the phytotoxicity to cultivated plants and the herbicidal activity on weeds were evaluated as follows: the aerial parts of the test plants were cut off and weighed (fresh weight); the percentage of the fresh weight of the treated plant to that of the untreated plant was calculated with the latter fresh weight taken as 100; and the crop damage and the herbicidal activity were evaluated by the standard given in the table below. The rating values of phytotoxicity, 0 and 1, and those of herbicidal effect, 5 and 4, are generally regarded as satisfactory to protect cultivated plants and control weeds, respectively. The rating values in the paddy field test alone were calculated from the dry weight of the test plants.
(§2) Plastic beakers (diameter, 10 cm; height, 10 cm) were filled with upland field soil, and the seeds of corn, cotton and soybean and the seeds of morningglory, velvetleaf, Johnsongrass and green foxtail were separately sown in the beakers. A designed amount of the test compound was sprayed over the top by means of a small hand sprayer. After the spraying, the test plants were grown for 20 days in the greenhouse, and herbicidal activity and phytotoxicity were examined. In this pre-emergence treatment, the test compounds were formulated into an emulsifiable concentrate according to Preparation Example 2 and applied at a spray volume of 5 liters per are by dispersing it in water with the addition of a spreading agent.

velvetleaf [1] = test: Test Example 1, foliar treatment, herbicidal activity; type: in vivo, Abutilon theophrasti; settings: 3 weeks; further: ranges in brackets are in %
Outline: (§3)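 Crops and weeds sown in upland soil, greenhouse-grown 2 weeks, then sprayed on foliage with compound as emulsifiable concentrate in water plus spreading agent at 5 liters per are. Scored 3 weeks later from aerial fresh weight as percent of untreated plants, converted to a rating scale.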

prickly sida = test: Test Example 5, spraying over the top, herbicidal activity; type: in vivo, Sida spinosa; settings: sprayed over the top, 20 days; further: ranges in brackets are in %
Procedure: as §1
(§4) Plastic trays (35 cm×25 cm×15 cm) were filled with upland field soil, and the seeds of tall morningglory, velvetleaf, jimsonweed, sicklepod, hemp sesbania, prickly side, Johnsongrass, green foxtail and large crabgrass and the seeds of soybean were sown therein. A designed amount of the test compound formulated into a wettable powder according to Preparation Example 1 and dispersed in water was sprayed over the top by means of a small hand sprayer at a spray volume of 5 liters per are. After the spraying, the test plants were grown in greenhouse for 20 days, and phytotoxicity and herbicidal activity were examined.

hardstem bulrush = test: Test Example 6, paddy pot perfusion, herbicidal activity; type: in vivo, Scirpus juncoides; settings: 2.5 g/are, 3 weeks, dry weight; further: ranges in brackets are in %
Procedure: as §1
(§5) Wagner's pots (1/5000 are) were filled with paddy field soil containing the seeds of broad-leaved weeds (e.g. monochoria, false pimpernel, toothcup) and the seeds of barnyardgrass and hardstem bulrush, and water was poured therein until the depth of water became 4 cm. Rice seedlings of the 3.5-leaf stage and the tubers of arrowhead were transplanted therein and grown for 2 days in a greenhouse. A designed amount of the test compound formulated in an emulsifiable concentrate according to Preparation Example 2 was applied to the pots by perfusion. Thereafter, the test plants were grown for an additional 3 weeks in the greenhouse, and herbicidal activity and phytotoxicity were examined. In this treatment, the emulsifiable concentrate was dispersed in water for application at a perfusion volume of 10 liters per are.

hemp sesbania = test: Test Example 5, spraying over the top, herbicidal activity; type: in vivo, Sesbania exaltator; settings: sprayed over the top, 20 days; further: ranges in brackets are in %
Procedure: as §1, §4

morningglory = test: Test Example 4, pre-emergence treatment, herbicidal activity; type: in vivo; settings: 20 days; further: ranges in brackets are in %
Procedure: as §1, §2

corn [2] = test: Test Example 1, foliar treatment, phytotoxicity to corn; type: in vivo; settings: 3 weeks; further: ranges in brackets are in %
Outline: as §3

green foxtail [3] = test: Test Example 4, pre-emergence treatment, herbicidal activity; type: in vivo, Setaria viridis; settings: 20 days; further: ranges in brackets are in %
Procedure: as §1, §2

Johnsongrass [4] = test: Test Example 5, spraying over the top, herbicidal activity; type: in vivo, Sorghum halepense; settings: sprayed over the top, 20 days; further: ranges in brackets are in %
Procedure: as §1, §4

wild mustard = test: Test Example 1, foliar treatment, herbicidal activity; type: in vivo, Brassica kaber; settings: 3 weeks
Outline: as §3

Johnsongrass [5] = test: Test Example 4, pre-emergence treatment, herbicidal activity; type: in vivo, Sorghum halepense; settings: 20 days; further: ranges in brackets are in %
Procedure: as §1, §2

jimsonweed = test: Test Example 5, spraying over the top, herbicidal activity; type: in vivo, Datura stramonium; settings: sprayed over the top, 20 days; further: ranges in brackets are in %
Procedure: as §1, §4

arrowhead = test: Test Example 6, paddy pot perfusion, herbicidal activity; type: in vivo, Sagittaria pygmaea; settings: 3 weeks, dry weight; further: ranges in brackets are in %
Procedure: as §1, §5

wild oat = test: Test Example 1, foliar treatment, herbicidal activity; type: in vivo, Avena fatua; settings: 3 weeks; further: ranges in brackets are in %
Outline: as §3

soybean [6] = test: Test Example 4, pre-emergence treatment, phytotoxicity to soybean; type: in vivo; settings: 20 days; further: ranges in brackets are in %
Procedure: as §1, §2

barnyardgrass [7] = test: Test Example 6, paddy pot perfusion, herbicidal activity; type: in vivo, Echinochloa crus-galli; settings: 3 weeks, dry weight; further: ranges in brackets are in %
Procedure: as §1, §5

tall morningglory = test: Test Example 5, spraying over the top, herbicidal activity; type: in vivo, Ipomoea purpurea; settings: sprayed over the top, 20 days; further: ranges in brackets are in %
Procedure: as §1, §4

barnyardgrass [8] = test: Test Example 1, foliar treatment, herbicidal activity; type: in vivo, Echinochloa crus-galli; settings: 3 weeks; further: ranges in brackets are in %
Outline: as §3

broad-leaved weed = test: Test Example 6, paddy pot perfusion, herbicidal activity; type: in vivo, monochoria, false pimpernel, toothcup; settings: 3 weeks, dry weight; further: ranges in brackets are in %
Procedure: as §1, §5

rice plant = test: Test Example 6, paddy pot perfusion, phytotoxicity to rice plant; type: in vivo; settings: 3 weeks, dry weight; further: ranges in brackets are in %
Procedure: as §1, §5

large crabgrass = test: Test Example 5, spraying over the top, herbicidal activity; type: in vivo, Digitaria sanguinalis; settings: sprayed over the top, 20 days; further: ranges in brackets are in %
Procedure: as §1, §4

green foxtail [9] = test: as above; type: in vivo, Setaria viridis; settings: sprayed over the top, 20 days
Procedure: as §1, §4

corn [10] = test: Test Example 4, pre-emergence treatment, phytotoxicity to corn; type: in vivo; settings: 20 days; further: ranges in brackets are in %
Procedure: as §1, §2

velvetleaf [11] = test: Test Example 5, spraying over the top, herbicidal activity; type: in vivo, Abutilon theophrasti; settings: sprayed over the top, 20 days; further: ranges in brackets are in %
Procedure: as §1, §4

soybean [12] = test: Test Example 5, spraying over the top, phytotoxicity to soybean; type: in vivo; settings: sprayed over the top, 20 days; further: ranges in brackets are in %
Procedure: as §1, §4

sicklepod = test: Test Example 5, spraying over the top, herbicidal activity; type: in vivo, Cassia obtusifolia; settings: sprayed over the top, 20 days; further: ranges in brackets are in %
Procedure: as §1, §4

velvetleaf [13] = test: Test Example 4, pre-emergence treatment, herbicidal activity; type: in vivo, Abutilon theophrasti; settings: 20 days; further: ranges in brackets are in %
Procedure: as §1, §2
Wherever Herbicidal activity, Green foxtail is given: ranges in brackets are in %.

COc1cc(N2C(=O)C3=C(CCCC3)C2=O)c(F)cc1Cl [Compound No. 1]
Phytotoxicity, Cotton (cotton; 2.5 g/are): 0 (100)
Phytotoxicity, Cotton (cotton; 10 g/are): 2 (80-89)
Herbicidal activity, Velvetleaf (velvetleaf [1]; 1.25 g/are): 5 (0)
Herbicidal activity, Velvetleaf (velvetleaf [1]; 5 g/are): 5 (0)
Herbicidal activity, Prickly sida (prickly sida; 3 g/are): 5 (0)
Herbicidal activity, Prickly sida (prickly sida; 9 g/are): 5 (0)
Herbicidal activity, Hardstem bulrush (hardstem bulrush): 4 (1-10)
Herbicidal activity, Hemp sesbania (hemp sesbania; 3 g/are): 5 (0)
Herbicidal activity, Hemp sesbania (hemp sesbania; 9 g/are): 5 (0)
Herbicidal activity, Morningglory (morningglory; 2.5 g/are): 4 (1-10)
Herbicidal activity, Morningglory (morningglory; 10 g/are): 5 (0)
Phytotoxicity, Corn (corn [2]; 1.25 g/are): 0 (100)
Phytotoxicity, Corn (corn [2]; 5 g/are): 1 (90-99)
Herbicidal activity, Green foxtail (green foxtail [3]; 2.5 g/are): 4 (1-10)
Herbicidal activity, Green foxtail (green foxtail [3]; 10 g/are): 5 (0)
Herbicidal activity, Johnsongrass (Johnsongrass [4]; 3 g/are): 5 (0)
Herbicidal activity, Johnsongrass (Johnsongrass [4]; 9 g/are): 5 (0)
Herbicidal activity, Wild mustard (wild mustard; 1.25 g/are): 5 (0)
Herbicidal activity, Wild mustard (wild mustard; 5 g/are): 5 (0)
Herbicidal activity, Johnsongrass (Johnsongrass [5]; 2.5 g/are): 5 (0)
Herbicidal activity, Johnsongrass (Johnsongrass [5]; 10 g/are): 5 (0)
Herbicidal activity, Jimsonweed (jimsonweed; 3 g/are): 5 (0)
Herbicidal activity, Jimsonweed (jimsonweed; 9 g/are): 5 (0)
Herbicidal activity, Arrowhead (arrowhead; 1.25 g/are): 4 (1-10)
Herbicidal activity, Arrowhead (arrowhead; 2.5 g/are): 5 (0)
Herbicidal activity, Wild cat (wild oat; 1.25 g/are): 1 (41-60)
Herbicidal activity, Wild cat (wild oat; 5 g/are): 5 (0)
Phytotoxicity, Soybean (soybean [6]; 2.5 g/are): 0 (100)
Phytotoxicity, Soybean (soybean [6]; 10 g/are): 0 (100)
Herbicidal activity, Barnyardgrass (barnyardgrass [7]; 1.25 g/are): 4 (1-10)
Herbicidal activity, Barnyardgrass (barnyardgrass [7]; 2.5 g/are): 5 (0)
Herbicidal activity, Tall morningglory (tall morningglory; 3 g/are): 4 (1-10)
Herbicidal activity, Tall morningglory (tall morningglory; 9 g/are): 5 (0)
Herbicidal activity, Barnyardgrass (barnyardgrass [8]; 1.25 g/are): 1 (41-60)
Herbicidal activity, Barnyardgrass (barnyardgrass [8]; 5 g/are): 5 (0)
Herbicidal activity, Broad-leaved weed (broad-leaved weed; 1.25 g/are): 5 (0)
Herbicidal activity, Broad-leaved weed (broad-leaved weed; 2.5 g/are): 5 (0)
Phytotoxicity, Rice plant (rice plant; 1.25 g/are): 1 (90-99)
Phytotoxicity, Rice plant (rice plant; 2.5 g/are): 1 (90-99)
Herbicidal activity, Large crabgrass (large crabgrass; 3 g/are): 5 (0)
Herbicidal activity, Large crabgrass (large crabgrass; 9 g/are): 5 (0)
Herbicidal activity, Green foxtail (green foxtail [9]; 3 g/are): 5 (0)
Herbicidal activity, Green foxtail (green foxtail [9]; 9 g/are): 5 (0)
Phytotoxicity, Corn (corn [10]; 2.5 g/are): 1 (90-99)
Phytotoxicity, Corn (corn [10]; 10 g/are): 2 (80-89)
Herbicidal activity, Velvetleaf (velvetleaf [11]; 3 g/are): 5 (0)
Herbicidal activity, Velvetleaf (velvetleaf [11]; 9 g/are): 5 (0)
Phytotoxicity, Soybean (soybean [12]; 3 g/are): 0 (100)
Phytotoxicity, Soybean (soybean [12]; 9 g/are): 0 (100)
Herbicidal activity, Sicklepod (sicklepod; 3 g/are): 4 (1-10)
Herbicidal activity, Sicklepod (sicklepod; 9 g/are): 5 (0)
Herbicidal activity, Velvetleaf (velvetleaf [13]; 2.5 g/are): 5 (0)
Herbicidal activity, Velvetleaf (velvetleaf [13]; 10 g/are): 5 (0)

Source: patent publication US5030760A, “Tetrahydrophthalimides, and their production and use” (Sumitomo Chemical Company, Ltd., priority 1981, dated 1991)
